Assay: xn = mol fraction of the nth substance listed
Conditions: Liquid; for mass density: 313.15 K, Vibrating tube method; for viscosity: 323.15 K, 100 kPa, Concentric cylinders viscometry

Cc1ccc(C)c(C)c1 [1,2,4-trimethylbenzene] + CCC(C)O
mass density [kg/m3]
Conditions	50000 kPa	60000 kPa	70000 kPa	80000 kPa	90000 kPa	100000 kPa	110000 kPa	120000 kPa	130000 kPa	140000 kPa
x2 = 0	–	895	899.9	904.6	909	913.3	917.4	921.4	925.2	928.9
x2 = 0.1	–	890.1	895.3	900.1	904.7	909.2	913.5	917.6	921.5	925.4
x2 = 0.1989	–	884.6	889.7	894.7	899.4	903.8	908.1	912.3	916.3	920.2
x2 = 0.3011	–	878.8	884.1	889	893.6	898.1	902.5	906.7	910.7	914.4
x2 = 0.4002	–	873.1	878.3	883.3	888.1	892.5	897	901.1	905.2	908.9
x2 = 0.5001	–	867.1	872.4	877.5	882.2	886.8	891.3	895.5	899.6	903.7
x2 = 0.5997	855	860.6	865.9	871	875.7	880.3	884.8	889.1	893.2	897.3
x2 = 0.6999	848.2	853.8	859.1	864.2	869	873.6	878.1	882.4	886.6	890.2
x2 = 0.7999	841.1	846.7	852.1	857.2	861.9	866.6	871.1	875.3	879.5	883.2
x2 = 0.9	833.3	839	844.4	849.5	854.3	859	863.5	867.7	871.9	875.6

Conditions	viscosity [mPa·s]
x2 = 0	0.62
x2 = 0.1001	0.62
x2 = 0.2261	0.614
x2 = 0.3	0.616
x2 = 0.3966	0.646
x2 = 0.5298	0.658
x2 = 0.6001	0.71

— the NIST ThermoML archive (doi:10.1016/j.jct.2017.03.006)
